Among the data in publication PMC7714403 (JCI Insight, 2020) are inhibition values, retold here.

What all share (assay): KiNativ, MOLM13 live cells
Common to all, as to format: cell-based

In assay [1] the target is PIP4K2A (Homo sapiens, UniProt P48426). The following applies: MOLM-13; 100 nM, 2 hours; ATP; read-out: Inhibition vs DMSO. Here is the method: (§1) Samples were analyzed by KiNativ in situ kinase profiling by ActivX Biosciences.
For assay [2], the target named is DGKA (Homo sapiens, UniProt P23743). The following applies: MOLM-13; 100 nM, 2 hours; ATP; read-out: Inhibition vs DMSO. Here is the method: as §1
Sequence of DGKA (P23743 whole entry): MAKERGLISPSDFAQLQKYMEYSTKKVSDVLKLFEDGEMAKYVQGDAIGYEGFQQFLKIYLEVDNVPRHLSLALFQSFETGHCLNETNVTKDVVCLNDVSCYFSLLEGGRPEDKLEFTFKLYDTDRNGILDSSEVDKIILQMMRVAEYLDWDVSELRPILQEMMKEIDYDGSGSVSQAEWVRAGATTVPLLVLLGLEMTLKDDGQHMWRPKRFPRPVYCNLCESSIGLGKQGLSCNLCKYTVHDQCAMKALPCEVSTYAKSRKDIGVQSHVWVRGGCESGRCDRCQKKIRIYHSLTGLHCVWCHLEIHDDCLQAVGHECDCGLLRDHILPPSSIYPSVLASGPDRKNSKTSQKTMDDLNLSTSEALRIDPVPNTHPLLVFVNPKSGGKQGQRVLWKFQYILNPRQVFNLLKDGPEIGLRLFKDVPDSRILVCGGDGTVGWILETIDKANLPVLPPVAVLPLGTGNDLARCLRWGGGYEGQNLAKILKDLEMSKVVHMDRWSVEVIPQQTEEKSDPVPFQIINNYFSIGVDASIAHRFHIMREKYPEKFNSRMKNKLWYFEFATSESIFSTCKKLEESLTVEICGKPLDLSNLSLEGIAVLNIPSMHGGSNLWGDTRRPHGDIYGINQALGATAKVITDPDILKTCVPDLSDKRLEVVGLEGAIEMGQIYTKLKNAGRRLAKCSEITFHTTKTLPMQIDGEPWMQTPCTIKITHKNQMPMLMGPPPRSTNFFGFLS
Assay [3] deals with NDR2 (Homo sapiens, UniProt Q9Y2H1). The following applies: MOLM-13; 100 nM, 2 hours; Lys1; read-out: Inhibition vs DMSO. Here is the method:
as §1

Assay [4] concerns the target RSKL1 (Homo sapiens, UniProt Q96S38). The conditions noted are these: MOLM-13; 100 nM, 2 hours; ATP; read-out: Inhibition vs DMSO. The method, then:
as §1

The target in assay [5] is T1, ZAP70 (Homo sapiens, UniProt P43403).
T1 sequence (P43403 1-619): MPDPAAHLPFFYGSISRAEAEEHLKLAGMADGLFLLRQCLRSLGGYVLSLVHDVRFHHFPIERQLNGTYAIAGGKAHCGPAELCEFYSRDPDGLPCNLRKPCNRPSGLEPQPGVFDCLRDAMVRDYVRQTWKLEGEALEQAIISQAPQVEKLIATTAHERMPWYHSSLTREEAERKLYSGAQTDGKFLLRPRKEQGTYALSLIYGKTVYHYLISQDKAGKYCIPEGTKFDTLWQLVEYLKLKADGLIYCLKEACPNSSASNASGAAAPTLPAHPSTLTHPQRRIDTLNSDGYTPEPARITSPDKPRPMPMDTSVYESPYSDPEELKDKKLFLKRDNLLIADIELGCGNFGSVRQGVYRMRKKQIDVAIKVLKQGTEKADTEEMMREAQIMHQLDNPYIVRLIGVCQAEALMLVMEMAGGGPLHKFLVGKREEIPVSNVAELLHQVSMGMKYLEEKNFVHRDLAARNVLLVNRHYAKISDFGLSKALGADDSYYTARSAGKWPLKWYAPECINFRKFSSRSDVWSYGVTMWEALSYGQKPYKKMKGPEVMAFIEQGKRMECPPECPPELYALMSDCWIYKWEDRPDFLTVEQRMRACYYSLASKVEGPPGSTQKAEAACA
The following applies: MOLM-13; 100 nM, 2 hours; Activation Loop; read-out: Inhibition vs DMSO. The method, then:
as §1

Assay [6] concerns the target NEK1 (Homo sapiens, UniProt Q96PY6). The following applies: MOLM-13; 100 nM, 2 hours; Lys2; read-out: Inhibition vs DMSO. The method, then: as §1
For assay [7], the target named is NDR1 (Homo sapiens, UniProt Q15208). The following applies: MOLM-13, 2 h, 100 nM. Here is the method:
as §1

Assay [8] deals with GSK3B (Homo sapiens, UniProt P49841). The conditions noted are these: MOLM-13; 100 nM, 2 hours; Lys2; read-out: Inhibition vs DMSO. The method, then:
as §1

Assay [9] addresses PFTAIRE2 (Homo sapiens, UniProt Q96Q40). The following applies: MOLM-13; 100 nM, 2 hours; Lys2; read-out: Inhibition vs DMSO. The method, then: as §1
The target of assay [10] is T2, LATS1 (Homo sapiens, UniProt O95835).
T2 sequence (O95835 1-1130): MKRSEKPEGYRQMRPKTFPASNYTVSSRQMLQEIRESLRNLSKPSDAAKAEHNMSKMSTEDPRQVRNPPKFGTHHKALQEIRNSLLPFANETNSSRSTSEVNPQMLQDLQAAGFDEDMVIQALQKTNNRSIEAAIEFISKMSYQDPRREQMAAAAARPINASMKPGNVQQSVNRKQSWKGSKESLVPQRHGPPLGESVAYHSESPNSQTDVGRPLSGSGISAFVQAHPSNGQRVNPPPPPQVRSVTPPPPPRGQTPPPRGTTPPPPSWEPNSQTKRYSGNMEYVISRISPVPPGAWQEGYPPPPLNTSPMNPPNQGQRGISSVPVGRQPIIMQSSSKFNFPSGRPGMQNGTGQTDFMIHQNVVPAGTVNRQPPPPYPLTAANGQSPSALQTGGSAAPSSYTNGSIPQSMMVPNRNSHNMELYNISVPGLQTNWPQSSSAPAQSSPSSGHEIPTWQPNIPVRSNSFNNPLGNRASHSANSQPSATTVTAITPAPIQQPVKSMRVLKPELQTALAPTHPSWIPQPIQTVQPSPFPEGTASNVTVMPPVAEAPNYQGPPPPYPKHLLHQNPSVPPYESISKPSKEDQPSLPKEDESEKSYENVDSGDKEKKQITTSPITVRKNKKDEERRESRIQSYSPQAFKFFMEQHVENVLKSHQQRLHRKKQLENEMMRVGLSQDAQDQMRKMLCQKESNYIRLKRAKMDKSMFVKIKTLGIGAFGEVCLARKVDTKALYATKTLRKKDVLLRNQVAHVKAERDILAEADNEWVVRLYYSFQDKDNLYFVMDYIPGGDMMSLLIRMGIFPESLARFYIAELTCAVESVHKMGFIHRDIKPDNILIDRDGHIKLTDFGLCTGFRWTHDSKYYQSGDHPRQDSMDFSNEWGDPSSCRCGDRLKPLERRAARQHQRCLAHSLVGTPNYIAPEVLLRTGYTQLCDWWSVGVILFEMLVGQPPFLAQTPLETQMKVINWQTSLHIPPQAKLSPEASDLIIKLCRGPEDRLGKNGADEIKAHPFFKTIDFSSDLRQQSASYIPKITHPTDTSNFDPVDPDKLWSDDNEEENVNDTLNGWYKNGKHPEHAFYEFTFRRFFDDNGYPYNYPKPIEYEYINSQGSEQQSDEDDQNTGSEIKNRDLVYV
The following applies: MOLM-13, 2 h, 100 nM. Here is the method: as §1

[11] abbreviates: Lys1, read-out: Inhibition vs DMSO.
The mark [12] stands for this setting: Lys2, read-out: Inhibition vs DMSO.

Molecules are shown by their SMILES. Read-outs that look alike come from different tables or passages of the source.

Sequence of NDR1 (Q15208 whole entry): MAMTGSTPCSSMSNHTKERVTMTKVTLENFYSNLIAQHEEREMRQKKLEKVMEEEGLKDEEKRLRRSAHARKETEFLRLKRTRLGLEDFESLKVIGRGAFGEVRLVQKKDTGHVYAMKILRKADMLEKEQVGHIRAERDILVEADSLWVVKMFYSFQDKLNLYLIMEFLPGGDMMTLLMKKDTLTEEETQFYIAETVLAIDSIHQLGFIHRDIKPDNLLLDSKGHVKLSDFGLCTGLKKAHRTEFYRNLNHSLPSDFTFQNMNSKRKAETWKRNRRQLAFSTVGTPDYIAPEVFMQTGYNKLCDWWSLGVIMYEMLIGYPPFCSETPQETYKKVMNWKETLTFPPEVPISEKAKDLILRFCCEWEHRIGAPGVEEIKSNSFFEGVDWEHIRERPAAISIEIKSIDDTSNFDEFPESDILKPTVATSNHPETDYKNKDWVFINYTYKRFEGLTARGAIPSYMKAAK
Sequence of RSKL1 (Q96S38 whole entry): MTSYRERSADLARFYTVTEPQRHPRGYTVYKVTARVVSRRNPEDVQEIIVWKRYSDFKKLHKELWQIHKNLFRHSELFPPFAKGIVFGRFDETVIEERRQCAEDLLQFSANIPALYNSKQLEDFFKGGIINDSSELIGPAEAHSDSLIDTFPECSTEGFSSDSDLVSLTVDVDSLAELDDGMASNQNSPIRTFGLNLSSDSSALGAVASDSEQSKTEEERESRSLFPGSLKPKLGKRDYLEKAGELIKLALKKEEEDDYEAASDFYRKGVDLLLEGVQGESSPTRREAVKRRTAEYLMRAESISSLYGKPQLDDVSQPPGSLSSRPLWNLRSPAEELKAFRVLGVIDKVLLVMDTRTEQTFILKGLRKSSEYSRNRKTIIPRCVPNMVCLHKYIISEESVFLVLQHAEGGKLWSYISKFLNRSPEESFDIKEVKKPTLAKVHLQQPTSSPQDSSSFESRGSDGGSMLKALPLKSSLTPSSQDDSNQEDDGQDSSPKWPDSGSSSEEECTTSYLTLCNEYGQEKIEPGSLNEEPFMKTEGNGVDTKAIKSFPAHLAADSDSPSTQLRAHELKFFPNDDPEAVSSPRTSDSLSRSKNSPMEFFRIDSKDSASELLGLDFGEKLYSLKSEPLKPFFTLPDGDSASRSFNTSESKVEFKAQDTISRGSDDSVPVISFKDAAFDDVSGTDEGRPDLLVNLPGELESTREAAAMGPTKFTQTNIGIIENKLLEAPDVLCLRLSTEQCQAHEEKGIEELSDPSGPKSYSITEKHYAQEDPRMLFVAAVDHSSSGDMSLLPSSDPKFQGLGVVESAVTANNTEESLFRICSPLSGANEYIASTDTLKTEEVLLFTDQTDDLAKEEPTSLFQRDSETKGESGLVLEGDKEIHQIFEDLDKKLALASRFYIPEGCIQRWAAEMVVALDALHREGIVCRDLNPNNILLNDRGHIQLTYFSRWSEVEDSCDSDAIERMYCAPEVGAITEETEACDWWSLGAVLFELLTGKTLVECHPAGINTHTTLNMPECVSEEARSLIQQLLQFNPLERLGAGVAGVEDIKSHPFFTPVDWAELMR
Sequence of NEK1 (Q96PY6 whole entry): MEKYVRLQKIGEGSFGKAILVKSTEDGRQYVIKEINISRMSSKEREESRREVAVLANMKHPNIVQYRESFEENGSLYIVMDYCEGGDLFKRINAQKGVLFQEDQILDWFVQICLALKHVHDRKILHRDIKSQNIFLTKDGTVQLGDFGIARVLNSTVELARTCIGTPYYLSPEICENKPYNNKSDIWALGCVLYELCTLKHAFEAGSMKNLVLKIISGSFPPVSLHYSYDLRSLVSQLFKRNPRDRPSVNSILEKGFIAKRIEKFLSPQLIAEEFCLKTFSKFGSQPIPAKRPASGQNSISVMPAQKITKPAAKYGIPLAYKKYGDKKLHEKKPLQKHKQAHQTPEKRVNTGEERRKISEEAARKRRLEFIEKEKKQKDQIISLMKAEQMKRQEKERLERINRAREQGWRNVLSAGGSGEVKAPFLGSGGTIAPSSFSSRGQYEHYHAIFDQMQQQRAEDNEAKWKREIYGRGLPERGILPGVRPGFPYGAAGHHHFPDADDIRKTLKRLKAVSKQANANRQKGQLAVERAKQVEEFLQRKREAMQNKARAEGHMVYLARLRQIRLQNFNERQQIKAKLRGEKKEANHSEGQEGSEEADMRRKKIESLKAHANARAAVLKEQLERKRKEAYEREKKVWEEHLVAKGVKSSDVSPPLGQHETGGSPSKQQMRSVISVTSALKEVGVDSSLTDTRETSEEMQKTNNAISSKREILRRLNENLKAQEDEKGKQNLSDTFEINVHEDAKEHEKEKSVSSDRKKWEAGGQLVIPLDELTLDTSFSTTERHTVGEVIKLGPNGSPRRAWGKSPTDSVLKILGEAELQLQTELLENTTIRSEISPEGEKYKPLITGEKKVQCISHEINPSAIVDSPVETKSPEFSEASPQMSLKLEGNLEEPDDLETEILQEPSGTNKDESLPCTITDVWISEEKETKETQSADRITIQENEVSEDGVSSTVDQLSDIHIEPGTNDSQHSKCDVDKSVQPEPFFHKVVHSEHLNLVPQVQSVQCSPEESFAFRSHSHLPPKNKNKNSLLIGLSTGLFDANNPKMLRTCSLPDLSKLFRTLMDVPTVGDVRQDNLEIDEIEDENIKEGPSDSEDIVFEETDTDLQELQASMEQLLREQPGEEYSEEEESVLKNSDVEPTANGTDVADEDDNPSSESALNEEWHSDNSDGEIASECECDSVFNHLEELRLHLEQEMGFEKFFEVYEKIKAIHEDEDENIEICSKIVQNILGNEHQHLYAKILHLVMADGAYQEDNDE
Sequence of GSK3B (P49841 whole entry): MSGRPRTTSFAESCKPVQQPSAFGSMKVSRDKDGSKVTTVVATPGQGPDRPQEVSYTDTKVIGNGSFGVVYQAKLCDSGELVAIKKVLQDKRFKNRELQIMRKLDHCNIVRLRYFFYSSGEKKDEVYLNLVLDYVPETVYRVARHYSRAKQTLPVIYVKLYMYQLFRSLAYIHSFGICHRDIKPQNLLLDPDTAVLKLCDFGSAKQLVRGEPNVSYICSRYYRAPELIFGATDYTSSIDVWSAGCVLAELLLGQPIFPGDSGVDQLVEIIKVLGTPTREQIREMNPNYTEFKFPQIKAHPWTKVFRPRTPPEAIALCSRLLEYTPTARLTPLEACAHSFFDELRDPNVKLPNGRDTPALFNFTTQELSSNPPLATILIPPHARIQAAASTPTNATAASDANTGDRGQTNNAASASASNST
Sequence of NDR2 (Q9Y2H1 whole entry): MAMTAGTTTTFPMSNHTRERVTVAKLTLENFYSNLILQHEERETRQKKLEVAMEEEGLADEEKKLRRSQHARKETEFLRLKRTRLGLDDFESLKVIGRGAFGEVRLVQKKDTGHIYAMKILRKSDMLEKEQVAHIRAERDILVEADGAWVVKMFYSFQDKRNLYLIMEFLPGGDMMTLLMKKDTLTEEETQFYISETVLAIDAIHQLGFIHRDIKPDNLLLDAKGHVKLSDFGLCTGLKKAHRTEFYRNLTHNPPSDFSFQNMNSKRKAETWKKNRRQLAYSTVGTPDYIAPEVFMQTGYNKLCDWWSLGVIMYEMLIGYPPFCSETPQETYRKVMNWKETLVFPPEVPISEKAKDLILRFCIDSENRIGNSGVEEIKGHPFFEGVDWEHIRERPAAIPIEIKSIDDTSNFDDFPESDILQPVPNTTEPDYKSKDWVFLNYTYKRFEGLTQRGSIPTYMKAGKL
Sequence of PFTAIRE2 (Q96Q40 whole entry): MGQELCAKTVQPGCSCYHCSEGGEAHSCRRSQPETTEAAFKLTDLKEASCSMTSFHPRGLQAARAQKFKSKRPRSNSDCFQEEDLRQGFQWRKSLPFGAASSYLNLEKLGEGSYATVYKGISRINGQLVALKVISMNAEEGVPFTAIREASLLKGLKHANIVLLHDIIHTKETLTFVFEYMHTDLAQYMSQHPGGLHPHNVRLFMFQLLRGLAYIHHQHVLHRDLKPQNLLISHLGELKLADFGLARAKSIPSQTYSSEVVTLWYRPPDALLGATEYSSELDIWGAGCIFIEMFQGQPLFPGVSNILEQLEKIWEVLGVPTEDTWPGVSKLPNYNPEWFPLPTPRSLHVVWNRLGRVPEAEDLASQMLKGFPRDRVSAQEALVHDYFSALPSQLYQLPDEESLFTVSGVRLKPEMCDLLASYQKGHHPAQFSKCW

Broadly, the inhibition is the drop in the measured response relative to a control, in per cent. As for `CN1CCN(Cc2ccc(Nc3ncc(Cl)c(Nc4ccccc4S(=O)(=O)N(C)C)n3)cc2)CC1` [TP-0903], the inhibition at 0.1 µM in assay [1] is -28.1%; in assay [2], -9.4%; in [3] it was -0.6%; in assay [4], -8.3%; in assay [5], 26.3%; in assay [6], -21.7%. Also, the inhibition at 0.1 µM in assay [7] (setting [11]) was 3.7%; in [7] (setting [12]), -11.4%; in [8] it was -11.3%; in assay [9] it was 16.4%; in assay [10] (setting [11]) it was 6.7%; in assay [10] (setting [12]), -12.4%.
